In the supplement of paper PMC10307832:

Columns and labels:
Assay in all cases: relative viability (nuclei count vs DMSO), 5 days (fraction); higher = more cells survive
[1] = compound: CC1=C(C(=O)N2C=CSC2=N1)CCN3CCC(=C(C4=CC=CC=C4)C5=CC=C(C=C5)F)CC3 + C[C@]1(O)C[C@@H](c2nc(-c3ccc4ccc(-c5ccccc5)nc4c3)c3c(N)nccn32)C1 [Linsitinib] (partner 1 µM)
Outline: (§1)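 For relative viability, nuclei counts in treated wells were divided by those in vehicle wells. Lung cancer cell lines had been pin-tool dosed in 1536-well plates the day after seeding and cultured for 5 days, then fixed and stained in one step (final 0.05% Triton X-100, 1% formaldehyde, 1 ug/ml Hoechst) and imaged at 4×. Doses were one drug alone or a fixed anchor-drug dose plus five library-drug doses (not always all listed) in √10 steps, and values are duplicate-plate medians.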

[2] = compound: CC1=C(C(=O)N2C=CSC2=N1)CCN3CCC(=C(C4=CC=CC=C4)C5=CC=C(C=C5)F)CC3 + CC1(C)CCC(c2ccc(Cl)cc2)=C(CN2CCN(c3ccc(C(=O)NS(=O)(=O)c4ccc(N[C@H](CCN5CCOCC5)CSc5ccccc5)c(S(=O)(=O)C(F)(F)F)c4)cc3)CC2)C1 [Navitoclax] (partner 0.5 µM)
Outline: as §1

[3] = compound: CC1=C(C(=O)N2C=CSC2=N1)CCN3CCC(=C(C4=CC=CC=C4)C5=CC=C(C=C5)F)CC3 + O=C(CCCCCCC(=O)Nc1ccccc1)NO [Vorinostat] (partner 1 µM)
Outline: as §1

[4] = compound: CC1=C(C(=O)N2C=CSC2=N1)CCN3CCC(=C(C4=CC=CC=C4)C5=CC=C(C=C5)F)CC3 + Nc1nc2[nH]cc(CCc3ccc(C(=O)N[C@@H](CCC(=O)O)C(=O)O)cc3)c2c(=O)[nH]1 [Pemetrexed] (partner 0.2 µM)
Outline: as §1

| Cell Line | relative viability ([1]; first compound 0.08 µM) | relative viability ([1]; first compound 0.253 µM) | relative viability ([1]; first compound 0.8 µM) | relative viability ([1]; first compound 2.53 µM) | relative viability ([1]; first compound 8 µM) | relative viability ([2]; first compound 0.08 µM) | relative viability ([2]; first compound 0.253 µM) | relative viability ([2]; first compound 0.8 µM) | relative viability ([2]; first compound 2.53 µM) | relative viability ([2]; first compound 8 µM) | relative viability ([3]; first compound 0.08 µM) | relative viability ([3]; first compound 0.253 µM) | relative viability ([3]; first compound 0.8 µM) | relative viability ([3]; first compound 2.53 µM) | relative viability ([3]; first compound 8 µM) | relative viability ([4]; first compound 0.08 µM) | relative viability ([4]; first compound 0.253 µM) | relative viability ([4]; first compound 0.8 µM) | relative viability ([4]; first compound 2.53 µM) | relative viability ([4]; first compound 8 µM) |
| --- | --- | --- | --- | --- | --- | --- | --- | --- | --- | --- | --- | --- | --- | --- | --- | --- | --- | --- | --- | --- |
| NCI-H3122 | 1.04 | 1.05 | 0.998 | 1.19 | 1.02 | 1.11 | 1.04 | 1.03 | 1.04 | 0.965 | 0.875 | 1.1 | 1.08 | 0.987 | 0.516 | 0.192 | 0.188 | 0.201 | 0.214 | 0.163 |
| PC-3 [JPC-3] | 0.884 | 0.914 | 1.01 | 1.04 | 0.893 | 0.789 | 0.657 | 0.845 | 0.921 | 0.803 | 0.746 |  | 0.748 | 0.879 | 0.666 | 1.16 |  | 0.995 | 1.01 | 1.02 |
| PC-14 | 0.904 | 1.07 | 1.02 | 0.947 | 0.734 | 0.655 | 0.974 | 1.05 | 1.09 | 0.449 | 0.677 | 0.901 | 0.866 | 0.762 | 0.623 | 0.153 | 0.138 | 0.133 | 0.153 | 0.137 |
| RERF-LC-KJ | 0.879 | 0.933 | 0.883 | 0.832 | 0.672 | 0.933 | 0.769 | 0.806 | 1 | 0.681 | 0.617 | 0.658 | 0.793 | 0.716 | 0.48 | 0.502 | 0.476 | 0.439 | 0.486 | 0.481 |
| SK-LU-1 | 1.17 | 0.93 | 1.15 | 1.38 | 0.814 | 0.586 | 0.899 | 0.941 | 0.913 | 0.371 | 0.773 | 0.708 | 0.75 | 0.783 | 0.713 | 1.12 | 0.942 | 0.995 | 1.13 | 0.597 |
| SK-MES-1 | 1.1 | 1.2 | 1.08 | 1.03 | 0.789 | 1.36 | 1.21 | 1.41 | 1.47 | 0.86 | 1.1 | 1.18 | 1.29 | 1.17 | 0.698 | 1.11 | 1.05 | 0.97 | 1.02 | 0.829 |
| SW 1573 | 0.843 | 0.804 | 0.795 | 0.835 | 0.721 | 0.777 | 1.02 | 1.11 | 1.15 | 0.409 | 0.808 | 0.697 | 1.01 | 0.795 | 0.423 | 0.998 | 0.854 | 0.786 | 0.933 | 0.578 |
| UMC-11 | 1.06 | 0.972 | 1.04 | 1.33 | 0.824 | 0.288 | 0.253 | 0.294 | 0.309 | 0.276 | 0.38 |  | 0.354 | 0.333 | 0.405 | 0.914 |  | 0.8 | 0.945 | 0.632 |
